The values that follow are results of earlier work, collected in patent publication US20210329915A1, “ABSORPTION PROMOTER, FLYING-INSECT PEST REPELLENT FRAGRANCE-CONTAINING COMPOSITION, AND FLYING-INSECT PEST REPELLENT PRODUCT” (DAINIHON JOCHUGIKU Co., Ltd., priority 2018, published 2021).

Structures are written as SMILES.

Regarding `CCCCOCCOCCO` [diethylene glycol monobutyl ether], the “Vapor pressure at 20° C.” value is reported as 3 Pa.

`CC(O)COC(C)COC(C)CO` (stereo not drawn) [tripropylene glycol]: the “Vapor pressure at 20° C.” value is on record as 0.67 Pa.

As to `OCCOCCOCCO` [triethylene glycol], the “Vapor pressure at 20° C.” value is 1 Pa.

Consider `OCCOCCO` [diethylene glycol], for which the “Vapor pressure at 20° C.” value is 3 Pa.

For the molecule `CC(O)CO` (stereo not drawn) [propylene glycol], the “Vapor pressure at 20° C.” value is 10.7 Pa.

Regarding `OCCOCc1ccccc1` [benzyl glycol], the “Vapor pressure at 20° C.” value was 2.7 Pa.
